Experimental data as given in PMC10901950, “Neuroprotective and Anti-inflammatory Effects of Rubiscolin-6 Analogs with Proline Surrogates in Position 2” (Neurochemical Research, 2023).
Numbered stars: 1 amine (or outer) side, 2 acyl side, 3 side chain; on linkers, the order of the positions; unused ones are H or OH. Square brackets hold non-standard residues; d marks the D form. Ends that are not written are not given here. Peptide text beside a SMILES is read from it. Nip(3R) = O=C([C@@H]1CCCN([*:1])C1)[*:2]; Dmt = Cc1cc(O)cc(C)c1C[C@H](N)C(=O)O; Inp = O=C(O)C1CCNCC1

Experiments:
[1] = molecular target: T1, κ-opioid receptor (Homo sapiens, UniProt P41145); test: Opioid receptor binding assay, [3H]U-69593 competition; conditions: CHO cell membranes, 0.5 nM [3H]U-69593, 25 °C, 120 min; mean ± SEM of four experiments in duplicate; read-out: Ki KOR
T1 construct: purchased; host or cells: CHO cells (membranes)
Protocol: (§1) The opioid receptor binding assays were performed using the modified method described elsewhere. Briefly, commercial membranes of Chinese Hamster Ovary (CHO) cells transfected with human opioid receptors were used. The binding affinities for µ-, δ- and κ-opioid receptors were determined by radioligand competition analysis using [^3H]DAMGO, [^3H]deltorphin-2, and [^3H]U-69593, respectively. Membranes were incubated at 25 °C for 120 min with appropriate concentrations of a tested peptide in the presence of 0.5 nM radioligand in a total volume of 0.5 mL of 50 mM Tris/HCl (pH 7.4) containing bovine serum albumin (BSA) (1 mg/mL), bacitracin (50 µg/mL), bestatin (30 µM), and captopril (10 µM). Non-specific binding was determined in the presence of 1 µM naloxone. Incubations were terminated by the rapid filtration through the GF/B Whatman (Brentford, UK) glass fibre strips (pre-soaked for 2 h in 0.5% (v/v) […]) using Millipore Sampling Manifold (Billerica, MA, USA). The filters were washed thrice with 4 mL of ice-cold Tris buffer solution. Packard Tri-Carb 2100 TR liquid scintillation counter (Ramsey, MN, USA) was used to measure the bound radioactivity after overnight extraction of the filters in 4 mL of a Perkin Elmer Ultima Gold scintillation fluid (Wellesley, MA, USA). The data were analyzed by a nonlinear least square regression analysis computer program Graph Pad PRISM 6.0 (Graph Pad Software Inc., San Diego, CA, USA). The values of the inhibitory constants (Ki) were calculated according to the equation of Cheng and Prusoff.
(§2) The ability of R-6 and its new analogs to bind to µ-, δ- and κ-opioid receptors was determined by competitive binding assays against [^3H]DAMGO, [^3H][Ile^5,6]deltorphin-2 and [^3H]U-69593, respectively, using membranes of CHO cells transfected with opioid receptors and are summarized in Table 2.

[2] = Degradation by the brain homogenate; format: in vitro ADME; conditions: rat brain homogenate 100 µL (10 mg protein/mL, 50 mM Tris-HCl pH 7.4) + 100 µL peptide 0.5 mM, final 200 µL, 37 °C, 0-60 min, HPLC read-out, ln 2/k; mean ± SEM of four independent experiments in duplicate; read-out: T0.5 (degradation half-life)
Protocol: The degradation studies were performed on the rat brain homogenate according to the modified method described elsewhere. Briefly, rat brains, after isolation and homogenization in 50 mM Tris–HCl (pH 7.4), were stored at − 80 °C until used. During the test, the aliquots (100 µL, 10 mg protein/mL) were incubated with 100 µL of a peptide (0.5 mM) over 0, 7.5, 15, 22.5, 30, and 60 min at 37 °C in a final volume of 200 µL. The reaction was stopped at the required time by placing the tube on ice and acidifying it with 20 µL of 1 M aqueous HCl solution. Then, the aliquots were centrifuged at 20,000×g for 10 min at 4 °C. The obtained supernatants were filtered and analyzed by HPLC on a Vydac C18 column (5 µm, […]) using the solvent system of 0.1% trifluoroacetic acid (TFA) in water (A) and 80% acetonitrile in water containing 0.1% TFA (B) and a linear gradient of 0–100% B over 25 min. The rate constants of degradation (k) were obtained as described earlier by a least square linear regression analysis of logarithmic peak areas [ln(A/AD)], where A—the amount of peptide remaining, AD—the initial amount of peptide, versus time. Degradation half-lives (t1/2) were calculated from the rate constants as ln 2/k.

[3] = molecular target: T2, δ-opioid receptor (Homo sapiens, UniProt P41143); test: Opioid receptor binding assay, [3H][Ile5,6]deltorphin-2 competition; design: purchased; host or cells: CHO cells (membranes); conditions: CHO cell membranes, 0.5 nM [3H][Ile5,6]deltorphin-2, 25 °C, 120 min; mean ± SEM of four experiments in duplicate; read-out: Ki DOR
Protocol: as §1, §2

[4] = molecular target: T2, δ-opioid receptor; test: Calcium mobilisation assay, CHO cells with GαqG66Di5; format: cell-based; design: expressed in transfected cells; host or cells: CHO cells; gift from Prof; Girolamo Calo, University of Padova; conditions: for δ-opioid receptors pEC50 (CL95%): agonist potency, mean ± SEM of three experiments in triplicate; for δ-opioid receptors pEC50 (CL95%) / δ-opioid receptors α ± SEM: Inactive = inactive as an agonist up to 1 µM; for δ-opioid receptors α ± SEM: intrinsic activity, Emax ratio to DPDPE; for EC50: read-out: δ-opioid receptors pEC50 (CL95%) (converted)
Protocol: Chinese Hamster Ovary (CHO) cells stably co-expressing human recombinant µ- or κ-opioid receptors and the C-terminally modified Gαqi5, and CHO cells co-expressing the human recombinant δ-opioid receptors and the GαqG66Di5 chimeric protein (a generous gift from Prof. Girolamo Calo, University of Padova, Italy) were used in calcium mobilization assay, that was performed as reported in detail elsewhere. Cells were cultured in Dulbecco’s Modified Eagle’s Medium (DMEM)/Ham’s F12 (1:1) culture medium supplemented with 10% (v/v) Fetal Bovine Serum (FBS), penicillin (100 IU/mL), streptomycin (100 µg/mL), L-glutamine (2 mM), fungizone (1 µg/mL), geneticin (G418; 200 µg/mL) and hygromycin B (100 µg/mL). Cell cultures were kept at 37 °C in 5% CO2/humidified air. When confluence was reached (3–4 days), cells were seeded at a density of 50,000 cells/well into 96-well black, clear-bottom plates. After 24 h incubation, the cells were loaded with a medium supplemented with probenecid (2.5 mM), calcium-sensitive fluorescent dye Fluo-4 AM (3 µM), pluronic acid (0.01%), and HEPES (20 mM) and kept for 30 min at 37 °C. Then, the loading solution was aspirated, and 100 µL/well of assay buffer (HBSS supplemented with 20 mM HEPES, 2.5 mM probenecid, and 500 µM Brilliant Black) was added.
The tested peptides were diluted in the HBSS/HEPES (20 mM) buffer (containing 0.005% BSA) and placed into 96-well plates. The range of concentrations tested was 10 µM–1 × 10^–6 µM. After placing both plates (cell culture and compound plate) into the FlexStation II (Molecular Device, Union City, CA, USA), the online additions were carried out in a volume of 50 µL/well and the fluorescence changes were measured.
Concentration–response curves were fitted with the four-parameter logistic, nonlinear regression model: Effect=baseline+Emax- baseline/1+10^logEC50- Xn where X is the agonist concentration and n is the Hill coefficient. Ligand efficacies, expressed as the intrinsic activity (α), were calculated as the Emax ratio of the tested compound and the standard agonist.

Row | Molecule | Ki [1] | half-life at 0.25 mM [2] | Ki [3] | δ-opioid receptors pEC50 (CL95%) [4] | δ-opioid receptors α ± SEM [4] | EC50 [4]
1 | CC(C)C[C@H](NC(=O)C1CCN(C(=O)[C@@H](N)Cc2ccc(O)cc2)CC1)C(=O)N[C@@H](CC(=O)O)C(=O)N[C@@H](CC(C)C)C(=O)N[C@@H](Cc1ccccc1)C(N)=O [analog 7, Tyr-Inp-Leu-Asp-Leu-Phe-NH2] (H-Y[Inp]LDLF-NH2) | > 1000 nM | 30.7 ± 0.35 min | 773 ± 137 nM | Inactive | Inactive | 
2 | CC(C)C[C@H](NC(=O)[C@@H]1CCCN(C(=O)[C@@H](N)Cc2ccc(O)cc2)C1)C(=O)N[C@@H](CC(=O)O)C(=O)N[C@@H](CC(C)C)C(=O)N[C@@H](Cc1ccccc1)C(=O)O [analog 2, Tyr-(R)-Nip-Leu-Asp-Leu-Phe-OH] (H-Y[Nip(3R)]LDLF-OH) | > 1000 nM | 25.5 ± 0.4 min | > 1000 nM | Inactive | Inactive | 
3 | YPLDLF [R-6, rubiscolin-6] | > 1000 nM | 14.3 ± 0.8 min | 11.5 ± 2.25 nM |  |  | 5620 nM
4 | CC(C)C[C@H](NC(=O)C1CCN(C(=O)[C@@H](N)Cc2ccc(O)cc2)CC1)C(=O)N[C@@H](CC(=O)O)C(=O)N[C@@H](CC(C)C)C(=O)N[C@@H](Cc1ccccc1)C(=O)O [analog 3, Tyr-Inp-Leu-Asp-Leu-Phe-OH] (H-Y[Inp]LDLF-OH) | > 1000 nM | 28.6 ± 0.95 min | 734 ± 31.3 nM | Inactive | Inactive | 
5 | Cc1cc(O)cc(C)c1C[C@H](N)C(=O)N1CCC[C@@H](C(=O)N[C@@H](CC(C)C)C(=O)N[C@@H](CC(=O)O)C(=O)N[C@@H](CC(C)C)C(=O)N[C@@H](Cc2ccccc2)C(=O)O)C1 [analog 4, Dmt-(R)-Nip-Leu-Asp-Leu-Phe-OH] (H-[Dmt][Nip(3R)]LDLF-OH) | > 1000 nM | 30.4 ± 1.2 min | > 1000 nM | Inactive | Inactive | 
6 | Cc1cc(O)cc(C)c1C[C@H](N)C(=O)N1CCC(C(=O)N[C@@H](CC(C)C)C(=O)N[C@@H](CC(=O)O)C(=O)N[C@@H](CC(C)C)C(=O)N[C@@H](Cc2ccccc2)C(=O)O)CC1 [analog 5, Dmt-Inp-Leu-Asp-Leu-Phe-OH] (H-[Dmt][Inp]LDLF-OH) | > 1000 nM | 38.5 ± 0.7 min | 13.1 ± 3.08 nM |  | 0.39 ± 0.02 | 22400 nM
7 | YPLDLF-NH2 [analog 6, Tyr-Pro-Leu-Asp-Leu-Phe-NH2] | > 1000 nM | 23.2 ± 1.05 min | > 1000 nM | Inactive | Inactive | 
8 | Cc1cc(O)cc(C)c1C[C@H](N)C(=O)N1CCC[C@H]1C(=O)N[C@@H](CC(C)C)C(=O)N[C@@H](CC(=O)O)C(=O)N[C@@H](CC(C)C)C(=O)N[C@@H](Cc1ccccc1)C(=O)O [analog 1, Dmt-Pro-Leu-Asp-Leu-Phe-OH] (H-[Dmt]PLDLF-OH) | > 1000 nM | 20.8 ± 0.85 min | 91.7 ± 29.7 nM | Inactive | Inactive | 
